Counter-ions that a name gives are not always drawn.
How the values were obtained:
A20.2.J = test: Proliferation test, cell line A20.2.J; assay type: cell-based; conditions: 72 h, tritium-thymidine incorporation, read-out: concentrations at which a 50% inhibition occurs, A20.2.J
Protocol: (§1) Clicks/RPMI 1640 medium (50:50) with L-glutamine and without NaHCO3 in powder form for 10 l (Seromed, Biochrom, Berlin, FRG), is dissolved in 9 l of double-distilled water and sterile-filtered into bottles each containing 900 ml.
(§2) For keeping tumor cells and hybridoma cells, use medium containing 5% FCS is prepared.
(§3) For keeping cell lines, 900 ml of use medium containing 10% FCS, 10 ml of NEA (non-essential amino acids) solution (Gibco), 10 ml of sodium pyruvate solution (100 mM, Gibco) and 5 ml of 10^-2 M mercaptoethanol are mixed.
(§4) The tumor cells or cell lines used in the test are taken from the stock solution in the logarithmic growth phase, washed twice with wash medium and suspended in the appropriate medium.
(§5) The proliferation test is carried out in round-bottom microtiter plates. Compounds of the formula I and interleukins are dissolved in 50 μl each/hollow of the appropriate medium and the cell count (5×10^5) is adjusted with 100 μl/hollow so that a final volume of 200 μl/hollow results. In all tests, the values are determined four times. Cells without preparations and without growth factor are defined as a negative control and cells without preparation with growth factor afford the values for the positive control. The value of the negative control is subtracted from all values determined and the difference of positive control minus negative control is set at 100%.
(§6) The microtiter plates are incubated at 37° C./5% CO2 for 72 h and the proliferation rate is determined correspondingly as in mitogen-induced lymphocyte proliferation. The cell lines were obtained from the strain collection, American Type Culture Collection ("ATCC").

EL 4 = test: Proliferation test, cell line EL 4; assay type: cell-based; conditions: Mus musculus, EL4; cell line EL 4, 72 h, tritium-thymidine incorporation; read-out: concentrations at which a 50% inhibition occurs, EL 4
Protocol: as §1, §2, §3, §4, §5, §6

K562 = test: Proliferation test, cell line K562; assay type: cell-based; conditions: Homo sapiens; cell line K562, 72 h, tritium-thymidine incorporation; read-out: concentrations at which a 50% inhibition occurs, K562
Protocol: as §1, §2, §3, §4
as §5, with “Cells without preparations and without growth factor are defined as a negative control and cells without preparation with growth factor afford the values for the positive control.” left out
The microtiter plates are incubated at 37° C./5% CO2 for 72 h and the proliferation rate is determined correspondingly as in mitogen-induced lymphocyte proliferation. […]

dehydrogenases = test: BIAcore comparison of relative binding strengths of the dehydrogenases; conditions: protein concentration of 1 μM; compound immobilised on CM5 chip
Protocol: (§7) The analysis was carried out essentially as described in Current Biology, Vol. 3, No. 12, pages 913-915 (1993).
(§8) System: BIAcore® 2000 with corresponding software, Pharmacia Biosensor AB, Uppsala, Sweden
(§9) Chip: CM5 sensor chip, Pharmacia Biosensor AB
(§10) Coating: according to Example 8
(§11) Running buffer: HBS buffer, BIA certified, Pharmacia Biosensor AB
(§12) Injection: 5 min association phase per 50 μl of the sample to be analyzed.
(§13) Rinsing time: 180 sec 3 min dissociation phase
(§14) Regeneration: 2×15 sec using 0.05% sodium dodecylsulfate
The relative binding strengths of the dehydrogenases investigated were compared with one another at a defined protein concentration.

Bovine serum albumin = Bovine serum albumin (Bos taurus, UniProt P02769); test: BIAcore binding of serum albumin to chip coated with compound of Example 2; conditions: compound immobilised on CM5 chip according to Example 8
Sequence of Bovine serum albumin (P02769 25-607): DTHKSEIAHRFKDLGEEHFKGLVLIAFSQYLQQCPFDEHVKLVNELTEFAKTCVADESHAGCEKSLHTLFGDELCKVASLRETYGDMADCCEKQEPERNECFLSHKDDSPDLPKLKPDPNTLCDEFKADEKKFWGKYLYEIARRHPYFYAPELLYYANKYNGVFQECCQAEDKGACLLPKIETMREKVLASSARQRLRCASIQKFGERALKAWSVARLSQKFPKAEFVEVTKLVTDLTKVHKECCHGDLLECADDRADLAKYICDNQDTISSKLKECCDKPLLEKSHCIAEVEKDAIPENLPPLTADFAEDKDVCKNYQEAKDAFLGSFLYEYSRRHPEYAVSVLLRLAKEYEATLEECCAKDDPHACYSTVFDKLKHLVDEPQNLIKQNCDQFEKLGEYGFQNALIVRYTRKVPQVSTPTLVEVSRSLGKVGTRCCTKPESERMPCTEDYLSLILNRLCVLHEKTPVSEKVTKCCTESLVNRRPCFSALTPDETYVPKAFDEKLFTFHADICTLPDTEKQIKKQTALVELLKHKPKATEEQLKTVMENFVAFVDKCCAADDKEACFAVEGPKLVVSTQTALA
Protocol: (§15) The starting material is a CM5 chip from Pharmacia Biosensor having a carboxymethyldextran surface (BIApplication Handbook, Ed. 1994, Merck AB, Uppsala, Sweden). The coupling steps are all carried out at a flow rate of 5 μl/min. All steps are carried out at 25° C. using Hepes buffered saline ("HBS") pH 7.4 as the running buffer.
(§16) 1st step: 35 μl of a 1:1 mixture of 0.05 M NHS (N-hydroxysuccinimide) and 0.2 M EDC (N-ethyl-N'-(dimethylaminopropyl)carbodiimide) in order to activate the chip surface.
(§17) 2nd step: 35 μl of a 40 mM cystamine dihydrochloride solution in 0.1 M sodium borate buffer pH 8.5.
(§18) 3rd step: 35 μl of ethanolamine hydrochloride pH 8.5 to saturate unoccupied matrix structures.
(§19) 4th step: 35 μl of 0.1 M dithiothreitol in 0.1 M sodium borate buffer pH 8.5.
(§20) 5th step: 35 μl of a solution containing compound according to Example 2 (10 mg/ml) in 0.1 M sodium borate buffer pH 7.5.
as §7, §8, §9, §10, §11, §12, §13, §14
(§21) The term "Resonance Units" is a quantitative unit which is proportional to the amount of protein bound.

Rat serum albumin = Rat serum albumin (Rattus norvegicus, UniProt P02770); test: as above; conditions: compound immobilised on CM5 chip according to Example 8
Sequence of Rat serum albumin (P02770 25-608): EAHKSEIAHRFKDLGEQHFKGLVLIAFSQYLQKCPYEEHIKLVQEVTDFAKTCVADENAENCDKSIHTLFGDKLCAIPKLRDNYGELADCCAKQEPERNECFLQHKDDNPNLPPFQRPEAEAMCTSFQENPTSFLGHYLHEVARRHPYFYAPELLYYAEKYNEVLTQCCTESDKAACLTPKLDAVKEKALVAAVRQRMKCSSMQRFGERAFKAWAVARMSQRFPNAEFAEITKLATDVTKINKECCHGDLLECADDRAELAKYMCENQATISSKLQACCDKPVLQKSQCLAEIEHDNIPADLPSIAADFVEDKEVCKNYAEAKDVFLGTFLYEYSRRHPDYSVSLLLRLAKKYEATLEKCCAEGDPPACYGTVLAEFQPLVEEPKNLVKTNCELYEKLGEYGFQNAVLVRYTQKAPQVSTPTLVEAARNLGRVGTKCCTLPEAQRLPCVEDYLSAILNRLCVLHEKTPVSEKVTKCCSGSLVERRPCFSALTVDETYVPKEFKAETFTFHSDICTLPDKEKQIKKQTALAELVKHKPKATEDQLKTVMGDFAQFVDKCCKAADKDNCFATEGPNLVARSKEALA
Protocol: as §15, §16, §17, §18, §19, §20, §7, §8, §9, §10, §11, §12, §13, §14, §21

Human serum albumin = Human serum albumin (Homo sapiens, UniProt P02768); test: as above; conditions: compound immobilised on CM5 chip according to Example 8
Sequence of Human serum albumin (P02768 25-609): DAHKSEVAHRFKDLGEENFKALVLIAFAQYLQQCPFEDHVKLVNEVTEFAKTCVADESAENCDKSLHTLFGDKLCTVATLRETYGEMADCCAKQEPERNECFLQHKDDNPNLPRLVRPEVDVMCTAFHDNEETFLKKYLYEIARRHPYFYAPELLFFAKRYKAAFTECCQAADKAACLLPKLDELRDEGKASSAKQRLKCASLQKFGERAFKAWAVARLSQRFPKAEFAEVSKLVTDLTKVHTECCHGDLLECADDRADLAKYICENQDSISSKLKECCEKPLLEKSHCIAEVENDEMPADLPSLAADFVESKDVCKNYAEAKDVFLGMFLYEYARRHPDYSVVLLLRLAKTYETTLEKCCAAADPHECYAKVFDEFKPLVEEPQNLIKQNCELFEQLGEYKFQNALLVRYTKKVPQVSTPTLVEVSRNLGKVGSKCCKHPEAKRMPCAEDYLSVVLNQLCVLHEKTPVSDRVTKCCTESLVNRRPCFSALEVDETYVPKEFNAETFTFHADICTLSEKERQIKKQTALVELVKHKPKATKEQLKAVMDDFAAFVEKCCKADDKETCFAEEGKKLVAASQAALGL
Protocol: as §15, §16, §17, §18, §19, §20, §7, §8, §9, §10, §11, §12, §13, §14, §21

Donkey serum albumin = Donkey serum albumin (Equus asinus, UniProt Q5XLE4); test: as above; conditions: compound immobilised on CM5 chip according to Example 8
Sequence of Donkey serum albumin (Q5XLE4 25-607): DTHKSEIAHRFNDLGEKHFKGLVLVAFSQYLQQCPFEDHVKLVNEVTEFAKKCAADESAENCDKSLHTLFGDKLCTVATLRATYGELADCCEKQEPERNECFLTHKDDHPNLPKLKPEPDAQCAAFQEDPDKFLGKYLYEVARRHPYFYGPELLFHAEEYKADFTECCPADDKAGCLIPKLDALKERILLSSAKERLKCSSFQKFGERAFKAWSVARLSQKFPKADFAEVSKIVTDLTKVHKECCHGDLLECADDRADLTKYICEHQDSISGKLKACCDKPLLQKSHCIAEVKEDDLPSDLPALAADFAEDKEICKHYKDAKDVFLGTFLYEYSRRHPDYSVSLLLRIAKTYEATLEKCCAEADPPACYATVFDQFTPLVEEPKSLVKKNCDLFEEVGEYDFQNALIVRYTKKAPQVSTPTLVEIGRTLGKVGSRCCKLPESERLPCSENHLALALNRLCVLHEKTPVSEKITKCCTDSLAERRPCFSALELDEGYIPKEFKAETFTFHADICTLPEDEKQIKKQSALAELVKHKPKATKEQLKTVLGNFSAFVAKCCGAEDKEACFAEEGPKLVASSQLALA
Protocol: as §15, §16, §17, §18, §19, §20, §7, §8, §9, §10, §11, §12, §13, §14, §21

Sheep serum albumin = Sheep serum albumin (Ovis aries, UniProt P14639); test: as above; conditions: compound immobilised on CM5 chip according to Example 8
Sequence of Sheep serum albumin (P14639 25-607): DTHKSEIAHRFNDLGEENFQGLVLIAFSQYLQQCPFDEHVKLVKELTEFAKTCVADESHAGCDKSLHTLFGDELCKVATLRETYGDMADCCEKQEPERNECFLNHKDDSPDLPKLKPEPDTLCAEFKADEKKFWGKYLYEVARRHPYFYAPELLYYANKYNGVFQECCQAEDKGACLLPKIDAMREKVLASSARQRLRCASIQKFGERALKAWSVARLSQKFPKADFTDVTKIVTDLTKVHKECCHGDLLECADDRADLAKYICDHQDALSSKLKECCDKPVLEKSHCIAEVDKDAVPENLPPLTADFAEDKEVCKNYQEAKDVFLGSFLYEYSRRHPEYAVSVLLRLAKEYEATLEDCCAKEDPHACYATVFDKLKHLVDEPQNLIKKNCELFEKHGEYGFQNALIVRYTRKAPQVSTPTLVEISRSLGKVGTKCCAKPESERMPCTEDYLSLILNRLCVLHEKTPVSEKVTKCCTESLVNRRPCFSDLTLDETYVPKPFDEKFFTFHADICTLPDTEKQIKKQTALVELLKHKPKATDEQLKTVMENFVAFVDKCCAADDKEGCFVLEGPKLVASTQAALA
Protocol: as §15, §16, §17, §18, §19, §20, §7, §8, §9, §10, §11, §12, §13, §14, §21

Chicken serum albumin = target: T1, Chicken serum albumin (Gallus gallus, UniProt P19121); test: as above; conditions: compound immobilised on CM5 chip according to Example 8
T1 sequence (P19121 24-615): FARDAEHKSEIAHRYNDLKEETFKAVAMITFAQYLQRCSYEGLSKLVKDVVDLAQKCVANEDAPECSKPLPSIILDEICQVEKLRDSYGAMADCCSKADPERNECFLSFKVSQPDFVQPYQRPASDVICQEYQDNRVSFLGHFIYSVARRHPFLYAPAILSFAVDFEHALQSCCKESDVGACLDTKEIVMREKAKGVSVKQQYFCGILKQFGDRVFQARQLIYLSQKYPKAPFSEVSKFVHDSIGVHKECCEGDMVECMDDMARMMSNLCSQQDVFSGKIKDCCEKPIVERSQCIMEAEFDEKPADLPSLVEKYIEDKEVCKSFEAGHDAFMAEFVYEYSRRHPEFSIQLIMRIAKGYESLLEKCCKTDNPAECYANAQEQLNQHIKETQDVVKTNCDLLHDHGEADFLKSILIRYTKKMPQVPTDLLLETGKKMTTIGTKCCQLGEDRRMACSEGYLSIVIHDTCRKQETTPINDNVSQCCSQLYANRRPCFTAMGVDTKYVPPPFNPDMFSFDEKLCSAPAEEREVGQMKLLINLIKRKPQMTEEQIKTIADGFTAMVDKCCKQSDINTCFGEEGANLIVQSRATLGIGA
Protocol: as §15, §16, §17, §18, §19, §20, §7, §8, §9, §10, §11, §12, §13, §14, §21

Mouse serum albumin = Mouse serum albumin (Mus musculus, UniProt P07724); test: as above; conditions: compound immobilised on CM5 chip according to Example 8
Sequence of Mouse serum albumin (P07724 25-608): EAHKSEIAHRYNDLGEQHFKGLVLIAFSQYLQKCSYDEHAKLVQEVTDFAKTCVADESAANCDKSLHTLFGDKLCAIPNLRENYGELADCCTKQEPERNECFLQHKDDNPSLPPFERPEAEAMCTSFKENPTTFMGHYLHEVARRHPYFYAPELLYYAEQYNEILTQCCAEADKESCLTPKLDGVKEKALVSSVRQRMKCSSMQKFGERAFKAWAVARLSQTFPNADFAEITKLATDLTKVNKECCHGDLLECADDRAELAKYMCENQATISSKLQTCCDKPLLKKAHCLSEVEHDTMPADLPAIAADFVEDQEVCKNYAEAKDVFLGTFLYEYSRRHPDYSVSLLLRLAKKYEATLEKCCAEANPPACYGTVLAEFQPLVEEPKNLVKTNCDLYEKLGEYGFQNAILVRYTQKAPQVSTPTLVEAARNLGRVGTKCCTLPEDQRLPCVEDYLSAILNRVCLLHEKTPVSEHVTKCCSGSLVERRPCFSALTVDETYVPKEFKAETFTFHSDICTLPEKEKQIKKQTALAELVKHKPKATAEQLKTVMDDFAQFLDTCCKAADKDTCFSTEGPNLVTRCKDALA
Protocol: as §15, §16, §17, §18, §19, §20, §7, §8, §9, §10, §11, §12, §13, §14, §21

Dihydroorotate DH = Dihydroorotate DH (Homo sapiens, UniProt Q02127); test: BIAcore binding of dehydrogenases to chip coated with compound of Example 2; conditions: compound immobilised on CM5 chip
Sequence of Dihydroorotate DH (Q02127 whole entry): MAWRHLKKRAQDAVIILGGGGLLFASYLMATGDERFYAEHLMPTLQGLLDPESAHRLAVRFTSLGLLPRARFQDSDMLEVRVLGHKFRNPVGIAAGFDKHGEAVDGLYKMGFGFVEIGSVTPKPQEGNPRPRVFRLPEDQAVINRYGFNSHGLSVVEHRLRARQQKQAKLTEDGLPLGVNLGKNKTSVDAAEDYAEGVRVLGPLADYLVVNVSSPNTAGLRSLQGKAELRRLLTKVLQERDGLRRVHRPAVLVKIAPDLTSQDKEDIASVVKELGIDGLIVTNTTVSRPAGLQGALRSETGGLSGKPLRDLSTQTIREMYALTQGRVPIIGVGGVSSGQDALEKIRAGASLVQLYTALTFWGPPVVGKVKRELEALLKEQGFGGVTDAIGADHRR
Protocol: as §15, §16, §17, §18, §19, §20, §7, §8, §9, §10, §11, §12, §13, §14, §21
(§22) DH represents the enzyme designation dehydrogenase

Pyruvate kinase DH = test: as above; conditions: compound immobilised on CM5 chip
Protocol: as §15, §16, §17, §18, §19, §20, §7, §8, §9, §10, §11, §12, §13, §14, §21, §22

[1] = target: Glyceraldehyde phosphate DH (Homo sapiens, UniProt P04406); test: as above; conditions: compound immobilised on CM5 chip
Sequence of Glyceraldehyde phosphate DH (P04406 whole entry): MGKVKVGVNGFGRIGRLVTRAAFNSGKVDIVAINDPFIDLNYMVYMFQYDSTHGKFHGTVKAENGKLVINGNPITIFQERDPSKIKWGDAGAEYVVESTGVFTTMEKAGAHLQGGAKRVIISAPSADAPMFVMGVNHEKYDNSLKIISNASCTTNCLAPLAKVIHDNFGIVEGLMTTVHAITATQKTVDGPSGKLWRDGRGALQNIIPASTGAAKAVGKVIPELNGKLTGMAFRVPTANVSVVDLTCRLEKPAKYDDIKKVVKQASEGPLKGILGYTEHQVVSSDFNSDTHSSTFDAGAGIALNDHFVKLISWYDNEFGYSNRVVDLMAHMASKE
Protocol: as §15, §16, §17, §18, §19, §20, §7, §8, §9, §10, §11, §12, §13, §14, §21, §22

RAW 264.7 cells = test: Comparative affinity chromatography of LPS-stimulated, leflunomide-treated RAW 264.7 cytosol extracts; assay type: cell-based; conditions: RAW 264.7, 10 ng LPS/ml plus 60 μM A 77 1726B, 24 hours; FRACTOGEL column derivatized according to Example 10
Source text: The stimulation of the macrophage cell line RAW 264.7 with lipopolysaccharide was used as an in vitro model for inflammatory processes. Lipopolysaccharide ("LPS") is an essential structural constituent of the outer membrane of Gram-negative bacteria and is recognized as such by immune cells of almost all organisms. In particular, macrophages are activated by LPS stimulation to synthesize a number of cytokines such as TNF-α, IL-1 and IL-6. Potential changes in the protein pattern which accompany this stimulation should be prevented by the simultaneous administration of the immunoregulatory preparation leflunomide.
RAW 264.7 cells were incubated with 10 ng of LPS/ml of culture medium for 24 hours. In the case of LPS-stimulated, leflunomide-treated cells, incubation was simultaneously carried out with 60 μM A 77 1726B for 24 hours. The cells were processed and the cytosolic extracts investigated by affinity chromatography with the aid of the FRACTOGEL® column derivatized according to Example 10. The preparation fractions of these three batches were then applied to an analytical gradient gel and compared with one another.

CC(O)=C(C#N)C(=O)Nc1ccc(OCCCI)cc1 [Example 5, 2-Cyano-3-hydroxybut-2-enecarboxylic acid (4-(3-iodopropoxy)phenyl)amide]
IC50 (A20.2.J): 50 µM | IC50 (EL 4): 25 µM

CC(O)=C(C#N)C(=O)Nc1ccc(NC(=O)CBr)cc1 [Example 2]
IC50 (A20.2.J): 15 µM | IC50 (K562): 20 µM | relative binding strengths of the dehydrogenases (dehydrogenases): the binding of the dihydroorotate DH was the strongest, followed by lactate DH, glyceraldehyde phosphate DH and pyruvate kinase | Resonance Units, binding of serum albumin (Bovine serum albumin): 50 Resonance Units | Resonance Units, binding of serum albumin (Rat serum albumin): 1061 Resonance Units | Resonance Units, binding of serum albumin (Human serum albumin): 294 Resonance Units | Resonance Units, binding of serum albumin (Donkey serum albumin): 480 Resonance Units | Resonance Units, binding of serum albumin (Sheep serum albumin): 331 Resonance Units | Resonance Units, binding of serum albumin (Chicken serum albumin): 8 Resonance Units | Resonance Units, binding of serum albumin (Mouse serum albumin): 151 Resonance Units | IC50 (EL 4): 6 µM | Resonance Units, binding of Dihydroorotate DH (Dihydroorotate DH; enzyme 50 nM): 203 Resonance Units | Resonance Units, binding of Dihydroorotate DH (Dihydroorotate DH; enzyme 100 nM): 425 Resonance Units | Resonance Units, binding of Dihydroorotate DH (Dihydroorotate DH; enzyme 250 nM): 1064 Resonance Units | Resonance Units, binding of Pyruvate kinase DH (Pyruvate kinase DH; enzyme 50 nM): 85 Resonance Units | Resonance Units, binding of Pyruvate kinase DH (Pyruvate kinase DH; enzyme 100 nM): 189 Resonance Units | Resonance Units, binding of Pyruvate kinase DH (Pyruvate kinase DH; enzyme 250 nM): 505 Resonance Units | Resonance Units, binding of Glyceraldehyde phosphate DH ([1]; enzyme 25 nM): 69 Resonance Units | Resonance Units, binding of Glyceraldehyde phosphate DH ([1]; enzyme 50 nM): 148 Resonance Units | Resonance Units, binding of Glyceraldehyde phosphate DH ([1]; enzyme 100 nM): 297 Resonance Units | Resonance Units, binding of Glyceraldehyde phosphate DH ([1]; enzyme 250 nM): 603 Resonance Units

Cc1oncc1C(=O)Nc1ccc(NC(=O)CBr)cc1 [Example 1, 5-Methylisoxazole4-carboxylic acid (4-(2-bromoacetylamino)phenyl)amide]
IC50 (A20.2.J): 0.8 µM | IC50 (K562): 50 µM | IC50 (EL 4): 0.8 µM

CC(O)=C(C#N)C(=O)Nc1ccc(C(F)(F)F)cc1 [A 77 1726B, sodium salt of N-(4-trifluoromethylphenyl)-2-cyano-3-hydroxycrotonamide]
intensity of band around 35 kDa (malate dehydrogenase) in the preparation fraction (RAW 264.7 cells): markedly increased

Reference: US6265588A, “Isoxazole and crotonamide derivatives and their use as pharmaceuticals and diagnostics” (Aventis Pharma Deutschland GmbH, priority 1997, dated 2001)
